The values below come from patent US9186322B2, “Platinum aggregates and process for producing the same” (Insmed Incorporated, priority 2002, dated 2015).

This series is described as follows: TEM analysis of particles. The format is physicochemical. To be noted: not complexed with a lipid. As to the method: The white to portion containing mostly light fraction was removed and the yellowish brown fraction on the bottom was used for TEM analysis. A small amount of sample (less than 10 microliters) was placed on the carbon coated grid. The grid was placed on the top of a piece of filter paper and spun an Eppendorf centrifuge for 1 minute at 500 RPM to remove excess water. Samples were air-dried for at least one hour before analysis. If centrifugation was done at too low a speed, water was not removed sufficiently enough, and the sample remained too thick, even after drying, tending to boil when exposed to high vacuum inside the TEM microscope. Centrifugation conditions were adjusted to be gentle enough to avoid damage to the grid or loss of the sample.
The cisplatin solution was briefly sonicated in a bath of room temperature water. At the first signs of cisplatin precipitation and cloudiness, a small volume was taken with a pipette and immediately placed on a carbon coated grid as described in the preceding paragraph.
TEM images were obtained on a Zeiss 910 Transmission Electron Microscope at the Princeton Imaging and Analysis Center, Princeton University, Princeton, N.J. An accelerating high voltage of 100 kV was used, and pictures were captured on a charged couple device (CCD) camera at magnifications of 2000 to 25,000×. […]

As to `N.N.[Cl][Pt][Cl]` [cisplatin, cis-diamine-dichloroplatinum (II)], the crystal length is recorded as 10-20 microns and the crystal width entry was “approximately 2 microns”.
